The subject of experiment [1] is MUC1-fs. The experiment can be described thus: BRD-4780 treatment in fs/+ knock-in mice, kidney MUC1-fs by IF and Western blot. The class given is in vivo, mouse. As for the experimental part: Mice were anesthetized with 3 L/min 02 mixed with 3% isoflurane using the Combi-Vet® system (Rothacher Medical, Bern, Switzerland) for 5 min. Mouse kidneys were removed, sagittally cut to half and rapidly frozen in Tissue-Tek® O.C.T. Compound, Sakura® Finetek (OCT) (25608-930, VWR) using dry ice and 100% ethanol. Five […] sagittal cryosections (CM1950, Leica) were thaw mounted on microscope slides (Fisherbrand™ Superfrost™ Plus, Fisher Scientific) and kept in the cryostat (at −26° C.) for the duration of the sectioning process. Sections were immersion-fixed for 10 min in 4% PFA (15710, Electron Microscopy Sciences), then washed in PBS. The slides were then subjected to antigen retrieval by immersion in 10 mM citric acid buffer (pH=6), for 10 minutes at 95° C. […]
MUC1-fs and MUC1-wt mean intensities were calculated in kidney sections of mice treated with either vehicle or BRD-4780 (FIGS. 4A, 4B and 12A). As MUC1-fs and MUC1-wt levels varied in different kidney regions, and as sections might contain different portions of the different kidney regions, the levels of these proteins were analyzed only in NCC-positive distal convoluted tubules. […] Each fluorescent channel intensity was measured and a threshold was set for the identification of NCC positive cells. MUC1-fs and MUC1-wt levels were then calculated only in the NCC positive cells. […]

Experiment [2] has as its system MUC1-fs. Kind of experiment: MUC1-fs IF in MKD patient iPSC-derived kidney organoids. Conditions: 10 μM, 72 hours, organoids P1-P3. The class given is cell-based, human. As for the experimental part: Kidney organoids were immersion-fixed for 15 min in 4% PFA at 4° C. and subsequently frozen in OCT using dry ice and 100% ethanol. Six […] cryostat sections (CM1950, Leica) were thaw-mounted on microscope slides (Fisherbrand™ Superfrost™ Plus, Fisher Scientific) and kept in the cryostat (at −26° C.) for the duration of the sectioning process. Prior to immunostaining, organoid sections were rinsed in PBS for 5 min, incubated for 20 min at room temperature (RT) in PBS blocking solution containing 5% normal donkey serum (530-100ML, EMD Millipore) and 1.5% Tween® 20 (P1379, Sigma-Aldrich), then incubated overnight at 4° C. with primary antibodies diluted in the same blocking solution (1:500, monoclonal Armenian hamster anti-MUC1, Ab80952, Abcam; 1:500, monoclonal Fab-A-VSH anti-fsMUC1, AbD22655.4, Bio-Rad; 1:300 monoclonal Rat anti-E Cadherin [DECMA-1], ab11512, Abcam; 1:500 polyclonal Rabbit anti-Laminin, L9393-100UL, Sigma-Aldrich; 1:500 Na/K-ATPase, ab76020, Abcam; 1:300 Fluorescein labeled Lotus Tetragonolobus Lectin (LTL), FL-1321, Vector laboratories; 1:100, polyclonal, Rabbit anti-TMED9, 21620-1-AP, Proteintech). […]
For a sequence analysis illustration, refer to FIG. 12B. […] MUC1-wt signal intensities were calculated within each WT reference region and averaged for entire section. […]

The text below walks through data of patent US12023308B2, “Agents for reversing toxic proteinopathies” (THE BROAD INSTITUTE, INC., priority 2019, dated 2024).

Each structure is given as a SMILES string.

Take `CC(C)[C@@H]1[C@H]2CC[C@H](C2)[C@H]1N` (racemic) [BRD-4780, 2-endo-amino-3-exo-isopropylbicyclo[2.2.1]heptane]: the “MUC1-fs in kidney tissue at highest dose” value in experiment [1] (fs/+ mice, 50 mg/kg daily oral gavage, 7 days) is listed as “nearly indistinguishable from control (+/+) mouse kidneys”. The “MUC1-fs protein in mouse kidneys” value in experiment [1] (mouse, in vivo) is recorded as “dose-dependent removal of mutant MUC1-fs protein”. Besides, the “MUC1-fs protein in patient kidney organoids” value in experiment [2] is recorded as “cleared the mutant protein from intracellular compartments in all patient organoids”.
